These results are taken from patent US20230055705A1, “SUBSTITUTED THIOPHENE CARBOXAMIDES AND DERIVATIVES THEREOF” (Bayer Aktiengesellschaft, priority 2019, published 2023).

SMILES strings stand for the structures. Bounds are passed on as bounds.

Data set [1] deals with salicylate responsive promoter sequence of the PR1 (pathogenesis-related protein I) gene (AT2G14610). Nature of the data set: Induction of defense gene expression in Arabidopsis thaliana (PR1 promoter-GFP reporter plants). Conditions: Arabidopsis thaliana, 72 h, 3rd day after spraying, mock treated leaves set as 1.00, read-out: relative fluorescence value; for fold induction at 75 ppm: 75 ppm of compound. Type of data set: in vivo. In short, it runs like this:
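Transgenic A. thaliana carrying GFP under the salicylate-responsive PR1 promoter, grown five days, then sprayed with compounds. Whole-plant fluorescence imaged and quantified on day 3 post-spray, expressed relative to mock-treated leaf background set at 1.00.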

In data set [2] the test system is Xanthomonas campestris pv. campestris. Nature of the data set: In vivo preventive test on Xanthomonas campestris pv. campestris (black rot on cabbage). The following applies: evaluated 8 or 10 days after inoculation, read-out: efficacy; for pest or weed control at 31 ppm: 31 ppm of active ingredient; for pest or weed control at 125 ppm: 125 ppm of active ingredient. In short, it runs like this: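 Young cabbage plants sprayed with compound in acetone/DMSO/Tween diluted in water; solvent-only controls. Leaves sprayed with bacterial suspension 72 h later, then held 8 or 10 days at 27° C and 95% relative humidity. Efficacy scored 8 or 10 days post-inoculation, 0% matching controls, 100% meaning no disease.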

A short description of data set [3]: LogP by HPLC on reversed phase columns (EEC directive 79/831 Annex V.A8). Type of data set: physicochemical. In short, it runs like this: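 LogP derived from retention time by linear interpolation against a C3–C16 alkan-2-one calibration series of known LogP. Measured by HPLC on reversed-phase columns following EEC 79/831 Annex V.A8. UV spectra over 200–400 nm at signal peaks gave lambda-max.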

Setting [4] is: reversed phase HPLC columns, given in the preparation examples, method not marked.
[5] abbreviates: reversed phase HPLC columns, method [a]: LC-UV, in an acidic range, with 0.1% formic acid in water and acetonitrile as eluent (linear gradient from 10% to 95% acetonitrile).
[6] abbreviates: reversed phase HPLC columns, method [a]: LC-UV, acidic range, 0.1% formic acid in water and acetonitrile as eluent (linear gradient 10% to 95% acetonitrile).

As to `COC(=O)CNC(=S)c1sc(Cl)c(Cl)c1Cl` [I.038, methyl N-[(3,4,5-trichloro-2-thienyl)carbonothioyl]glycinate], in data set [1], the fold induction at 300 ppm is over 2. The pest or weed control at 31 ppm in data set [2] lay in the range of 80 to 89%. In addition, the pest or weed control at 125 ppm in data set [2] was in the range of 80 to 89%. Also, the chromatographic logP in data set [3] (setting [4]) and in data set [3] (setting [5]) was 4.05 in each case.

On to `CCOC(=O)C(C#N)NC(=O)c1sc(Cl)c(Cl)c1Cl` (centres unmarked) [I.009], for which, in data set [1], the fold induction at 75 ppm was over 2 and the fold induction at 300 ppm was over 2. Besides, in data set [2], the pest or weed control at 31 ppm lay within 90 to 100% and the pest or weed control at 125 ppm lay within 90 to 100%. The molecule also came in with a chromatographic logP in data set [3] (setting [5]) of 3.31.

With `O=C(O)CNC(=S)c1sc(Cl)c(Cl)c1Cl` [I.022, N-[(3,4,5-trichloro-2-thienyl)carbonothioyl]glycine], the fold induction at 75 ppm in data set [1] is over 2. For the same molecule, the chromatographic logP in data set [3] (setting [4]) and in data set [3] (setting [5]) was 3.17 each time.

Consider `C[C@H](NC(=S)c1sc(Cl)c(Cl)c1Cl)C(=O)O` [I.113], for which, in data set [1], the fold induction at 75 ppm was over 2 and the fold induction at 300 ppm is over 2. Moreover, the pest or weed control at 31 ppm in data set [2] fell in the range of 80 to 89%. The same molecule registered a chromatographic logP in data set [3] (setting [5]) of 3.5.

With `C[C@H](NC(=O)c1sc(Cl)c(Cl)c1Cl)C(N)=O` [I.119], in data set [1], the fold induction at 75 ppm is over 2 and the fold induction at 300 ppm was over 2. The molecule further registered a chromatographic logP in data set [3] (setting [5]) of 2.16.

With `COC(=O)C(CC(F)F)NC(=O)c1sc(Cl)c(Cl)c1Cl` (centres unmarked) [I.016], in data set [1], the fold induction at 75 ppm is over 2 and the fold induction at 300 ppm is over 2. The pest or weed control at 31 ppm in data set [2] lay within 90 to 100%. The chromatographic logP in data set [3] (setting [5]) is 3.55.

As for `COC(=O)[C@H](CC(N)=O)NC(=O)c1sc(Cl)c(Cl)c1Cl` [I.015], in data set [1], the fold induction at 75 ppm is over 2 and the fold induction at 300 ppm was over 2. The pest or weed control at 31 ppm in data set [2] was in the range of 90 to 100%. Besides, the chromatographic logP in data set [3] (setting [5]) was 2.16.

In the case of `CCOC(=O)C(CC(N)=O)NC(=O)c1sc(Cl)c(Cl)c1Cl` (centres unmarked) [I.046], in data set [1], the fold induction at 75 ppm is over 2 and the fold induction at 300 ppm was over 2. In addition, in data set [2], the pest or weed control at 31 ppm lay within 90 to 100% and the pest or weed control at 125 ppm is 90 to 100%. In data set [3] (setting [5]), this molecule displayed a chromatographic logP of 2.35.

On to `COC(=O)[C@H](CSC(=O)N(C)C)NC(=O)c1sc(Cl)c(Cl)c1Cl` [I.142], for which, in data set [1], the fold induction at 75 ppm is over 2 and the fold induction at 300 ppm was over 2. In data set [2], the pest or weed control at 31 ppm lay in the range of 80 to 89% and the pest or weed control at 125 ppm lay within 90 to 100%. The chromatographic logP in data set [3] (method [a]: LC-UV, acidic range, 0.1% formic acid in water and acetonitrile as eluent (linear gradient 10% to 95% acetonitrile)) was 3.56.

For the molecule `CCOC(=O)C(CC(F)(F)F)NC(=O)c1sc(Cl)c(Cl)c1Cl` (centres unmarked) [I.048], in data set [1], the fold induction at 75 ppm is over 2 and the fold induction at 300 ppm is over 2. In addition, in data set [2], the pest or weed control at 125 ppm lay in the range of 90 to 100%. In addition, in data set [3] (setting [5]), the chromatographic logP was 4.27.

On to `COC(=O)[C@H](CCCNC(=N)N)NC(=O)c1sc(Cl)c(Cl)c1Cl` [I.008], for which, in data set [1], the fold induction at 75 ppm was over 2 and the fold induction at 300 ppm is over 2. Besides, the pest or weed control at 31 ppm in data set [2] was in the range of 80 to 89%. This molecule also had a chromatographic logP in data set [3] (setting [5]) of 1.73.

With `CCOC(=O)C(CSC)NC(=O)c1sc(Cl)c(Cl)c1Cl` (centres unmarked) [I.143], in data set [1], the fold induction at 75 ppm is over 2 and the fold induction at 300 ppm was over 2. Besides, in data set [2], the pest or weed control at 31 ppm fell in the range of 90 to 100% and the pest or weed control at 125 ppm lay in the range of 80 to 89%. Also, in data set [3] (setting [6]), the chromatographic logP amounted to 4.29.

Take `COC(=O)C(Cc1c[nH]cn1)NC(=O)c1sc(Cl)c(Cl)c1Cl` (centres unmarked) [I.012]: in data set [1], the fold induction at 75 ppm is over 2 and the fold induction at 300 ppm was over 2. Moreover, the pest or weed control at 31 ppm in data set [2] is 80 to 89%. The molecule further gave a chromatographic logP in data set [3] (setting [5]) of 1.5.

`COC(=O)C[C@H](NC(=O)c1sc(Cl)c(Cl)c1Cl)C(=O)OC` [I.144]: in data set [1], the fold induction at 75 ppm was over 2 and the fold induction at 300 ppm was over 2. For the same molecule, in data set [2], the pest or weed control at 31 ppm fell in the range of 80 to 89%. This molecule yielded a chromatographic logP in data set [3] (setting [6]) of 3.28.
